One may read the IC50 as the midpoint of a concentration-inhibition curve.

A short description of data set [1]: UV-vis absorption maximum (band shift) of liposome-associated fluorescein dyes. As to conditions: 25 mM. It counts as physicochemical. On the procedure:
(§1) As an example, in table 1 the results from some experiments are given. For comparison as well a formulation with anionic lipids was performed. For the anionic liposomes, most of the dye is lost during diafiltration, while for the cationic liposomes a large molar fraction of the dye remains immobilized in the lioposme suspension. […] For the CF experiments a lower bulk concentration of the dye was selected, because in that case binding is so strong, that for higher concentrations the liposomes will be destabilized due to the sterical hindrance by the CF molecules. The fraction of dye which was found immobilized in the suspensions from cationic liposomes was much higher that for the (anionic) DOPG containing liposomes. A band shift (λ max) in the absorption spectrum was observed, which increased as AF<F<CF, indication increasing binding strength. On the contrary, for the DOPG liposomes, no shift of the absorption maximum occurred. This can be seen most clearly in FIG. 1, where the complete spectra for the free and the liposomal dyes are depicted. All stages of formulation are monitored by HPLC analysis (lipid and drug) and by UV-vis spectroscopy. In HPLC analysis a slight loss of material after extrusion may be observed. UV-vis spectroscopy serves as a qualitative means in order to control formulation efficacy. The UV-vis spectra of the dye are shifted on binding to the lipid. The band shift is a function of the binding constant and the fraction of lipid bound and free dye can be estimated by UV-vis spectroscopy.

A short description of data set [2]: Diafiltration: retention of fluorescein dyes in liposome suspension (direct loading). It counts as physicochemical. The conditions noted are these: for Conc. marker after diafiltration: 25 mM.
Text: Liposomes may be formed by the well-known film method, such as described in the literature.[1] Briefly, from the organic solution of the lipid, or the lipid plus the drug, the solvent is evaporated, and a thin film of lipid (or lipid plus drug) is formed at the inner wall of a flask. The thin molecular film is resuspended in an aqueous phase, which contains the dye, and which may contain further components such as buffers, ions, cryoprotectants, etc. A typical formulation consists of a suspension of 25 mM DOTAP/DOPC 1:1, which is resuspended by a 5 mM solution of the dye.
as §1, with “depicted.” for “depicted. All stages of formulation are monitored by HPLC analysis (lipid and drug) and by UV-vis spectroscopy. In HPLC analysis a slight loss of material after extrusion may be observed. UV-vis spectroscopy serves as a qualitative means in order to control formulation efficacy. The UV-vis spectra of the dye are shifted on binding to the lipid. The band shift is a function of the binding constant and the fraction of lipid bound and free dye can be estimated by UV-vis spectroscopy.”
Separation of low molecular compounds from the liposomal suspensions Diafiltration techniques were used to separate low molecular components from the liposomal suspensions. For the above described 15 mM DOTAP/DOPC 1:1 formulations with 5 mM dye in the aqueous phase, ca. 50% of the dye was retained in the liposome suspension for AF, and 60% was retained for F. With 0.5 mM of CF, virtually 100% of the dye was retained in the solution (the amount of released dye was monitored by UV-vis)spectroscopy.

A short description of data set [3]: Remote loading of DOTAP/DOPC liposomes with AF, dialysis and UV-vis. The data set is classed as physicochemical. As to conditions: remote loading: 25 mM DOTAP/DOPC liposomes mixed with equal volume of 5 mM AF. On the procedure: The association of the dye to the liposomes can be performed as well to an already prepared formulation, by simply mixing the dye solution with the liposome suspension. […] The efficacy of the loading can be determined by diafiltration and by UV-vis and fluorescence spectroscopy of the suspension. As an example the results from remote loading of DOTAP/DOPC liposomes with AF (the most weakly binding fluorescein variety) are given. A 25 mM suspension of the pure lipid liposomes was prepared by the standard procedure. Then a 5 mM solution of AF was added to the suspension (equal volumina). Subsequently the suspension was dialyzed in order to remove the free dye. The dye content in the solution was controlled by UV-vis spectroscopy. In FIG. 2, the spectra after mixing, after dialysis, and after addition of triton are shown. The triton was added in order to destroy the liposomes and the release the lipid-bound dye.

Data set [4] is described as follows: Gel filtration (Microspin S-300 HR) separation of non-associated patent blue from liposomes. As to conditions: 50 μl loaded on Microspin S-300 HR. The data set is classed as physicochemical. The method, then:
Gel filtration is employed to separate the dye (MW<1000 Da) from the colloidal liposome. The free dye is retained in the pores of the column, the liposomes are so large that they elute without retention in the void volume. It is expected that in a liposomal formulation with a lipid concentration of 10 mM approximately 2% of the aqueous phase is entrapped in the liposomes, 98% are not entrapped (Liposomes a practical approach, Ed. R. R. C. New, IRL Press, Oxford 1990). This amount of dye is to be separated from the liposome by gel filtration.
A Microspin™ S-300 HR column (Amersham) was pre-equilibrated as required in the product description and loaded with 50 μl of the neutral liposomal formulation C. The goal was to investigate whether patent blue not associated with the liposomes can be separated from the liposomal fraction as described in the literature (Reynolds, J. A.; Nozaki, Y.; Tanford, C. Gel-exclusion chromatography on S1000 Sephacryl: application to phospholipid vesicles. Anal Biochem 1983, 130 (2), 471-474.) The majority of the dye was retained on the column, a slightly blue solution eluted (liposomes with associated dye; about 2% as estimated by UV spectroscopy). This illustrates that for neutral liposomes we can apply well-established separation protocols to separate un-associated material. […]
Background: Size exclusion chromatography separates by hydrodynamic size, large species first.

Data set [5] deals with A-375 Melanoma. As to the kind of experiment: Treatment of A-375 melanoma in NMRI nude mice with Taxol and SuccTXL cationic liposomes. It counts as in vivo. The conditions noted are these: iv, three times a week for three weeks, equitoxic doses; s.c. A-375 tumors; FIG. 9. The method, then: NMRI-nude mice from Elevage Janvier and housed in isolated ventilated cages under save environmental conditions (SPF facility, 22° C., 30-70% humidity, 12 h light/dark cycle) with food and water ad libitum. Experimental design was reviewed and approved by local government.
Tumor cells (A-375 human melanoma cell line, ATCC Nr.: CRL-1619) were grown as described in the data sheet supplied by ATCC. Tumor cells (5×10^6 in PBS) were inoculated s.c. in the right dorsal flank of mice in a volume of 50 μl on day 0.
Mice were assigned to the experimental groups (8 animals per cage), housed and handled (including monitoring of the body weight gain) at least five days before tumor inoculation (=day −6 to 0). Drug treatment begins after the tumors reached a volume of approximately 100 mm^3. […] Equitoxic doses of the compounds were determined in separate experiments, where toxicity was evaluated based on haematological parameters, body weight and animal clinical observations. […]
Animals were clinically monitored during the whole experiment and for at least one week after treatment was finished. […] The tumor dimensions were measured by calliper and the tumor size was calculated according to the following formula: V=πLW^2/6 (L=greatest length, W=width of perpendicular axis). […] The number of red and white blood cells and platelets were determined using an automated cell counter (Abbott Cell Dyn 3500).

Data set [6] deals with Ea.Hy cells. As to the kind of experiment: MTT cell viability assay, 72 h. As to conditions: Homo sapiens. The data set is classed as cell-based. The method, then: (§2) A-375 ([…]) and Ea.Hy cells ([…]) is seeded at a constant density (2×10^4/cm^2) in 24-well plates and cultivated over night at conditions of 5-5.5% CO2, 37° C. and ˜90% humidity. At day 1, cell culture medium is replaced by a mixture of fresh medium and a series of 11 consecutive drug dilutions is added to each well (duplicates) to cover a range between 0.1 and 1000 nM final drug concentration. After 72 h, the cell viability in each well is determined by measuring the activity of mitochondrial dehydrogenases (MTT assay). In viable cells the MTT substrate is converted to a blue, cell impermeable dye (Formazan). After 1 h the medium is removed, cells are lysed with isopropanol/0.04% HCl and the amount of the blue Formazan given as optical density at a wavelength of 550 nm (OD550 nm) quantitated in an ELISA reader. The experiment is evaluated using the Sigma Plot analysis software by plotting the mean OD550 nm value against the respective drug concentration. A best fit curve is calculated based on a double-sigmoid assumption algorithm and the IC50 value is determined according to this best fit curve with the following result: […]

The test system of data set [7] is A-375. As to the kind of experiment: MTT cell viability assay, 72 h. The data set is classed as cell-based. As to conditions: Homo sapiens. On the procedure:
as §2

A short description of data set [8]: Liposomal fluoride concentration after dialysis (ion chromatography). The data set is classed as physicochemical. The conditions noted are these: rehydrated with 150 mM sodium fluoride, 3 dialysis steps. The method, then: The lipids (either 10 mM DOTAP or 10 mM DOPC) are dissolved in chloroform and the solution is transferred into a round bottom flask. The organic solvent is evaporated under reduced pressure forming a clear lipid film on the flask's surface. This film is dried at 40° C. under vacuum (3 to 5 mbar) for about 60 minutes. Then, the film is rehydrated with the appropriate volume of an aqueous 150 mM sodium fluoride solution resulting in a liposomal solution. The next day, the liposomal solution is extruded 5 times through a 200 nm membrane. The size of the liposomes is determined by PCS (Zetasizer 1000 and 3000, Malvern Instruments). The fluoride that is not associated with the liposomes is removed by 3 successive dialysis steps (8 hours, Pierce, Slide-A-Lyzer dialysis cassette; 10000 molecular weight cut off) and the liposomal fluoride concentration is established by ion chromatography. For cationic 10 mM DOTAP liposomes the fluoride concentration is 1.3 mM, whereas the fluoride ion concentration is about 4 times lower for neutral 10 mM DOPC liposomes (0.3 mM fluoride). The far lower fluoride ion concentration of neutral liposomes is explained by the attractive forces of cationic lipids interacting with the negatively charged halide anion.

Data set [9] is described as follows: Chemical stability of succinyl paclitaxel in aqueous solution (HPLC, paclitaxel release). It counts as physicochemical. The conditions noted are these: for paclitaxel release: 4° C., 0.1 mM Tris-buffered.

Turning to `Nc1ccc(-c2c3ccc(=O)cc-3oc3cc(O)ccc23)c(C(=O)O)c1` [AF, aminofluorescein], the λ max in data set [1] (DOTAP/DOPC 50/50 liposomes) is listed as 497.6 nm. Also, in [2] (15 mM DOTAP/DOPC 1:1, 5 mM dye in the aqueous phase), the “dye retained in the liposome suspension after diafiltration” value is reported as “ca. 50%”. The “Conc. marker after diafiltration” value in data set [2] (DOTAP/DOPC 50/50 liposomes, conc. before diafiltration […]) is 800 µg/mL. Further, in data set [3], the “dye remained bound to the liposomes after dialysis” value was “ca. 50%”.

On to `CCN(CC)c1ccc(C(=C2C=CC(=[N+](CC)CC)C=C2)c2cc(O)c(S(=O)(=O)O)cc2S(=O)(=O)O)cc1` [PB, Patent blue], for which the “separation of dye from liposomes on gel filtration column (in words)” value in data set [4] is recorded as “trapped in the pores of the column material”.

`CC(=O)O[C@H]1C(=O)[C@@]2(C)[C@H]([C@H](OC(=O)c3ccccc3)[C@]3(O)C[C@H](OC(=O)[C@H](O)[C@@H](NC(=O)c4ccccc4)c4ccccc4)C(C)=C1C3(C)C)[C@]1(OC(C)=O)CO[C@@H]1C[C@@H]2O` [Taxol ®, Paclitaxel]: in data set [5], the “tumor growth rate (in words)” value is “reduced the tumor growth only to a limited extent”. Besides, the IC50 in [6] was 3 nM; in [7] it was 2 nM.

On to `[F-].[Na+]` [fluoride, sodium fluoride], for which the liposomal fluoride concentration stood at 1.3 mM in [8] (cationic 10 mM DOTAP liposomes) and 0.3 mM in [8] (neutral 10 mM DOPC liposomes).

Take `CC(=O)O[C@H]1C(=O)[C@@]2(C)C([C@H](OC(=O)c3ccccc3)[C@]3(O)C[C@H](OC(=O)C(OC(=O)CCC(=O)O)C(NC(=O)c4ccccc4)c4ccccc4)C(C)=C1C3(C)C)[C@]1(OC(C)=O)CO[C@@H]1C[C@@H]2O` (stereo partly drawn) [succinyl paclitaxel]: the paclitaxel release in data set [9] (pH 5, after 9 days) came out at 4%; in data set [9] (pH 7, after 9 days), 4%; in [9] (pH 9, after 9 days) it was 70%. For the same compound, the “paclitaxel release (in words)” value in [9] (40° C., all pH values (5, 7, 9), within 56 hours) was “intensive release of paclitaxel”. Besides, the concentration for half-maximal inhibition (IC50) in data set [6] was found to be 17 nM; in data set [7], 10 nM.

On to carboxy-fluorescein [CF], for which the λ max in data set [1] (DOPG/DOPC 95/5 liposomes) worked out at 492.6 nm; in data set [1] (DOTAP/DOPC 50/50 liposomes) it was 506 nm. In addition, the “dye retained in the liposome suspension after diafiltration” value in data set [2] (15 mM DOTAP/DOPC 1:1, 0.5 mM of CF) is on record as around 100%. For the same compound, the “Conc. marker after diafiltration” value in data set [2] (DOPG/DOPC 95/5 (anionic) liposomes, conc. before diafiltration 1.9 mg/ml) is 120 µg/mL; in data set [2] (DOTAP/DOPC 50/50 liposomes, conc. before diafiltration 0.19 mg/ml) it was 190 µg/mL.

These data come from patent US20100178243A1, “Novel method of stabilizing diagnostic and therapeutic compounds in a cationic carrier system” (MediGene AG, priority 2002, published 2010).
